Ten molecules from patent US20210070748A1, “INHIBITORS OF BRUTONS TYROSINE KINASE” (Pharmacyclics LLC, priority 2015, published 2021) can be followed below.

What all share (type): biochemical
One test addresses T1, JAK3 (Homo sapiens, UniProt P52333).
T1 sequence (P52333 1-1124): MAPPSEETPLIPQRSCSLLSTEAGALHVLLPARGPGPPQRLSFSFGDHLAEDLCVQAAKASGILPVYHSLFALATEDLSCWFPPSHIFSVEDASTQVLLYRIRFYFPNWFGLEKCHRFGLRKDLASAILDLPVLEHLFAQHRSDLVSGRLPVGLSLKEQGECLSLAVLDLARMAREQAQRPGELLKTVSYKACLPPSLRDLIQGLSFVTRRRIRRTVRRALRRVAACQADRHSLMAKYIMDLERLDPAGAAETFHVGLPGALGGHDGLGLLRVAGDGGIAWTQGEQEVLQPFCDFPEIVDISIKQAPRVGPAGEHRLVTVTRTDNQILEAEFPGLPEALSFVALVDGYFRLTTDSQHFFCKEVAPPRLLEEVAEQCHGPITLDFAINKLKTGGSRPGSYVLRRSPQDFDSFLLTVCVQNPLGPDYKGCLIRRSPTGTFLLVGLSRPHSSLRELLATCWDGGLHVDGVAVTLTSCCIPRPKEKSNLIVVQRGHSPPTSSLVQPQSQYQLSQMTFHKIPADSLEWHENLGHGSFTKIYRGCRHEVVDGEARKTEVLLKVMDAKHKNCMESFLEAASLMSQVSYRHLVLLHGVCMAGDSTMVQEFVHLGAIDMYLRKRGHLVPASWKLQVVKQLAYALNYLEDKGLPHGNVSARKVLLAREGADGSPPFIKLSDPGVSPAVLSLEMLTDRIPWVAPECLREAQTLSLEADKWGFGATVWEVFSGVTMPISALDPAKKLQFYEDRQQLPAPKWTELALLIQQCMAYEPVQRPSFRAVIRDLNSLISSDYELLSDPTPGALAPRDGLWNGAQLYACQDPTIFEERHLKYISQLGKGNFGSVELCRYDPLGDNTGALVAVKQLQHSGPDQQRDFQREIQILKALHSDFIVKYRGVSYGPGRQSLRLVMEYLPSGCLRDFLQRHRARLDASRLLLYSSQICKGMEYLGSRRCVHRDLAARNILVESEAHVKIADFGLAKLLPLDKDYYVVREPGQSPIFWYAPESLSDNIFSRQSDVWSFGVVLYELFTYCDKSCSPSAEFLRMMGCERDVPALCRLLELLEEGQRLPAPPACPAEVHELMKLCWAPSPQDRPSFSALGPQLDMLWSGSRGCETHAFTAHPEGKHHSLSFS
The test is described as follows: Inhibition of a panel of kinases, in vitro HotSpot kinase assay: JAK3. To be noted: D-compounds panel data; 1 μM ATP; read-out: IC50 JAK3.

A further test concerns the target LCK (Homo sapiens, UniProt P06239). The test can be described thus: Inhibition of a panel of kinases, in vitro HotSpot kinase assay: LCK. Particulars: D-compounds panel data; 1 μM ATP; read-out: IC50 LCK.
Another test has as its target T2, ITK (Homo sapiens, UniProt Q08881).
T2 sequence (Q08881 1-620): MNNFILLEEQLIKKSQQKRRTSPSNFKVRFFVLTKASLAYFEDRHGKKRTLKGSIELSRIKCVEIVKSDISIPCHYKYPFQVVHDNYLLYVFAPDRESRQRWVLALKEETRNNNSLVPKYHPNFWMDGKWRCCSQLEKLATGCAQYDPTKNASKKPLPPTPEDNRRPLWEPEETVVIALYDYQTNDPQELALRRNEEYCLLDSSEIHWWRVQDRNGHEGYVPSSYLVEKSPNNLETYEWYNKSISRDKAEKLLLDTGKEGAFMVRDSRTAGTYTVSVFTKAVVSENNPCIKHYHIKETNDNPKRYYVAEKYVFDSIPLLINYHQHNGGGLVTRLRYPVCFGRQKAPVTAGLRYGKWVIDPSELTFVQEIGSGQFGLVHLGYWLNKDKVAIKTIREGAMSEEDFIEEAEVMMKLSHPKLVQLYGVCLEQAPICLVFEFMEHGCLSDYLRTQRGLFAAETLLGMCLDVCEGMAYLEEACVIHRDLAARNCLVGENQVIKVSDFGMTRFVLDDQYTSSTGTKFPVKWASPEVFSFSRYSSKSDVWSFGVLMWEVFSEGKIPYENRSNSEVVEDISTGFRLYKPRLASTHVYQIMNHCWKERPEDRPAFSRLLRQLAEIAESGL
The test can be described thus: Inhibition of a panel of kinases, in vitro HotSpot kinase assay: ITK. To be noted: D-compounds panel data; 1 μM ATP. As to the method: (§1) The degree of inhibition of a panel of kinases is determined using the in vitro HotSpot kinase assay (purified enzymes, ^33P-ATP, an appropriate substrate and 1 μM ATP).

For the next test, the target named is EGFR (Homo sapiens, UniProt P00533). The test can be described thus: Inhibition of a panel of kinases, in vitro HotSpot kinase assay: EGFR. Particulars: D-compounds panel data; 1 μM ATP. How it is done:
as §1

The target in the next test is SRC (Homo sapiens, UniProt P12931). The test is described as follows: Inhibition of a panel of kinases, in vitro HotSpot kinase assay: SRC. To be noted: D-compounds panel data; 1 μM ATP. How it is done: as §1
The target in another test is T3, TEC (Homo sapiens, UniProt P42680).
T3 sequence (P42680 1-631): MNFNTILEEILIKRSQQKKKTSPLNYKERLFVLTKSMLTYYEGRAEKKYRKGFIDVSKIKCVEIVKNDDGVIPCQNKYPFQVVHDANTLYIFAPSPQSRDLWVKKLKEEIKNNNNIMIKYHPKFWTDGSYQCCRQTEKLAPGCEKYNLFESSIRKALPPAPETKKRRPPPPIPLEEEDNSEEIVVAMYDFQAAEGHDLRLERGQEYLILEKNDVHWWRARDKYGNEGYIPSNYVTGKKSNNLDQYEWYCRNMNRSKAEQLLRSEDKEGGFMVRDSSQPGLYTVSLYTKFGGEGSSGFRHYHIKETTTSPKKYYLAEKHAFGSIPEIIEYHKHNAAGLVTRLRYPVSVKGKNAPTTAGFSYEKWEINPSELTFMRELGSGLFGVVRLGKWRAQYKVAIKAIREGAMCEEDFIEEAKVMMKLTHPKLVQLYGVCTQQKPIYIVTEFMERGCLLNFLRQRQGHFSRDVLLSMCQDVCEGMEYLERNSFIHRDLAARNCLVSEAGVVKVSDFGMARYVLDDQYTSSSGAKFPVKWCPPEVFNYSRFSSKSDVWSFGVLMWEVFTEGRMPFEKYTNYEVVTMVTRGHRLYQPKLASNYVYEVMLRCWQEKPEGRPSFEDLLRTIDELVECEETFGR
The test can be described thus: Inhibition of a panel of kinases, in vitro HotSpot kinase assay: TEC. To be noted: D-compounds panel data; 1 μM ATP. How it is done: as §1

SRC, sequence (P12931 whole entry): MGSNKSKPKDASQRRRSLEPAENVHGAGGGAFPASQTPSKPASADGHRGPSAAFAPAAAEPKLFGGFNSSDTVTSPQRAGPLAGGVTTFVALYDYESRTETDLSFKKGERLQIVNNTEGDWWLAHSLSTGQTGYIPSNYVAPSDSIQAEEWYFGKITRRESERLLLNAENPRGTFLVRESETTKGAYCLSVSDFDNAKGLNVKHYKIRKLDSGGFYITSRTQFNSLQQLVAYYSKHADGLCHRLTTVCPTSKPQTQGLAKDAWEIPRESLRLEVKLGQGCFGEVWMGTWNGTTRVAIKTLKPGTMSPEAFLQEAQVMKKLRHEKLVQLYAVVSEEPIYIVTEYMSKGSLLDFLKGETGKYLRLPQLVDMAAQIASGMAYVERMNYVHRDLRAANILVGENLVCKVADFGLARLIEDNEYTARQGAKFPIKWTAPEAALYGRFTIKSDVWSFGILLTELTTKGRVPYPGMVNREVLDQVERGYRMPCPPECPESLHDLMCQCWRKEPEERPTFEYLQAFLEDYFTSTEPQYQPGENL
EGFR, sequence (P00533 25-1210): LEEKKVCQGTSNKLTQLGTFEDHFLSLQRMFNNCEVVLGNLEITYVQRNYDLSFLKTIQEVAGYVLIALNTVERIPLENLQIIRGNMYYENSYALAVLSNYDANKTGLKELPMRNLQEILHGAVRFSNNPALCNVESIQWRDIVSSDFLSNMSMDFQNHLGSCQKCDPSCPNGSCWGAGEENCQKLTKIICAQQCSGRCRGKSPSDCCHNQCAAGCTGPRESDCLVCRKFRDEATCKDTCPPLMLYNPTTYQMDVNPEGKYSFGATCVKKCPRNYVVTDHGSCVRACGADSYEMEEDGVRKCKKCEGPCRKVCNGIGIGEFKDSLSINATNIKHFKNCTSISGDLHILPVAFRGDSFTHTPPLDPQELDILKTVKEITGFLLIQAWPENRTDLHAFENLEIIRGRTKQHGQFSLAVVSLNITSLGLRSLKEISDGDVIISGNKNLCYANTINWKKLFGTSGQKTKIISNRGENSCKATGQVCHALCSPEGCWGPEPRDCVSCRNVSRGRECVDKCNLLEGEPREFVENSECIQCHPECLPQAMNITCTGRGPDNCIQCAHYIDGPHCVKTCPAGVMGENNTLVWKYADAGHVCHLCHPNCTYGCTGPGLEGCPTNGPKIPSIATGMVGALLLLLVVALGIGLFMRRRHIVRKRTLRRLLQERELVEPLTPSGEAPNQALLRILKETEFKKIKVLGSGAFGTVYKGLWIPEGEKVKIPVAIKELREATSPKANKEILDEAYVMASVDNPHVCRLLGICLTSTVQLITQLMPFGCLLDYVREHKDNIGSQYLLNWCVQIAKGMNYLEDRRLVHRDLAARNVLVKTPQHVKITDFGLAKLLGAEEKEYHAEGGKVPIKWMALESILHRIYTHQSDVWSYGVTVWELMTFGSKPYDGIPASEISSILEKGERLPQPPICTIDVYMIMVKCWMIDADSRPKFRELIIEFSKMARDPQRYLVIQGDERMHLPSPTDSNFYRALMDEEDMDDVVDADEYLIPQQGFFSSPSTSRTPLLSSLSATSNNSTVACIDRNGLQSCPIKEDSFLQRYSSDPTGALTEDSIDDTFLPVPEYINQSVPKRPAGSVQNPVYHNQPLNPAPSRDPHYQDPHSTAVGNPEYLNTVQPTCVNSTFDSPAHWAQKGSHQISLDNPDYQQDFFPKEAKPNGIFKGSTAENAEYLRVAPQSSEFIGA
LCK, sequence (P06239 whole entry): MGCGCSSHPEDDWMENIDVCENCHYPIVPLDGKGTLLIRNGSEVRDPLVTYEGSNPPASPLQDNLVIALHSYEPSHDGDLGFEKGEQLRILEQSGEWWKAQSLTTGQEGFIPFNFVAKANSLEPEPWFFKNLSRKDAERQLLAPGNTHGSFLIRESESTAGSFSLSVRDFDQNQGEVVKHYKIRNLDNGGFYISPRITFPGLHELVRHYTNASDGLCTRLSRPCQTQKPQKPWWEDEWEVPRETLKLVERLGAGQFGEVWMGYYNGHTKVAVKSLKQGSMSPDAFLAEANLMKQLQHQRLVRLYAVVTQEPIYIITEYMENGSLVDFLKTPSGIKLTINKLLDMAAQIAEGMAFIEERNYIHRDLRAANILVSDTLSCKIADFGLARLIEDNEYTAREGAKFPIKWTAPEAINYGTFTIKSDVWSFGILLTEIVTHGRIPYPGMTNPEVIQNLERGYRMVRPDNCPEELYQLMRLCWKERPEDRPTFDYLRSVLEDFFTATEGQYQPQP

As a reminder, the IC50 is the concentration that inhibits the measured activity by half. As to `C[C@@H]1[C@H](NC(=O)c2ccc3c(c2)OCCO3)CCCN1c1cnc(C(N)=O)c(Nc2cnn(C)c2)n1` [Example D-224, 5-[(2R,3R)-3-(2,3-dihydro-1,4-benzodioxine-6-amido)-2-methylpiperidin-1-yl]-3-[(1-methyl-1H-pyrazol-4-yl)amino]pyrazine-2-carboxamide], the IC50 on JAK3 was 1000 to 10000 nM; at LCK it was 100 to 1000 nM; against ITK it was 100 to 1000 nM; on EGFR, 100 to 1000 nM; at SRC it was 10 to 100 nM; on TEC, ≤ 10 nM.

With `Cc1ncc(Nc2nc(N3CCC[C@@H](NC(=O)c4ccc(C5CC5)cc4)[C@H]3C)cnc2C(N)=O)s1` [Example D-210, 5-[(2R,3R)-3-(4-cyclopropylbenzamido)-2-methylpiperidin-1-yl]-3-[(2-methyl-1,3-thiazol-5-yl)amino]pyrazine-2-carboxamide], the IC50 on JAK3 was 1000 to 10000 nM; at LCK, 100 to 1000 nM; against ITK, 100 to 1000 nM; at EGFR, 1000 to 10000 nM; at SRC it was 100 to 1000 nM; at TEC, ≤ 10 nM.

Regarding `Cn1cc(Nc2nc(N3CCC[C@@H](n4ccc5cc(C6CC6)ncc5c4=O)C3)cnc2C(N)=O)cn1` [Example D-225, 5-[(3R)-3-(6-cyclopropyl-1-oxo-1,2-dihydro-2,7-naphthyridin-2-yl)piperidin-1-yl]-3-[(1-methyl-1H-pyrazol-4-yl)amino]pyrazine-2-carboxamide], the IC50 at JAK3 is 100 to 1000 nM; at LCK, 100 to 1000 nM; on ITK it was 100 to 1000 nM; against EGFR, 1000 to 10000 nM; at SRC, 10 to 100 nM; against TEC it was ≤ 10 nM.

Regarding `CN1CCN(C(=O)c2ccc(Nc3nc(N4CCC[C@@H](n5ccc6cc(C7CC7)ccc6c5=O)C4)cnc3C(N)=O)cc2)CC1` [Example D-169, 5-[(3R)-3-(6-cyclopropyl-1-oxo-1,2-dihydroisoquinolin-2-yl)piperidin-1-yl]-3-{[4-(4-methylpiperazine-1-carbonyl)phenyl]amino}pyrazine-2-carboxamide], the IC50 on JAK3 lay in the range of 100 to 1000 nM; on LCK it was 100 to 1000 nM; at ITK, 100 to 1000 nM; at EGFR, 100 to 1000 nM; against SRC, 100 to 1000 nM; against TEC, 10 to 100 nM.

With `CC(C)c1ccc(S(=O)(=O)N[C@@H]2CCCN(c3cnc(C(N)=O)c(Nc4cnn(C)c4)n3)[C@@H]2C)cc1` [Example D-220, 3-[(1-methyl-1H-pyrazol-4-yl)amino]-5-[(2R,3R)-2-methyl-3-[4-(propan-2-yl)benzenesulfonamido]piperidin-1-yl]pyrazine-2-carboxamide], the IC50 was 1000 to 10000 nM at JAK3; > 10000 nM at LCK; > 10000 nM at ITK; > 10000 nM on EGFR; 1000 to 10000 nM on SRC; 1000 to 10000 nM against TEC.

For the molecule `C[C@@H]1[C@H](NC(=O)c2ccc(C(C)(C)C)cc2F)CCCN1c1cnc(C(N)=O)c(Nc2cnn(C)c2)n1` [Example D-223, 5-[(2R,3R)-3-(4-tert-butyl-2-fluorobenzamido)-2-methylpiperidin-1-yl]-3-[(1-methyl-1H-pyrazol-4-yl)amino]pyrazine-2-carboxamide], the IC50 was > 10000 nM on JAK3; 100 to 1000 nM at LCK; 1000 to 10000 nM on ITK; 1000 to 10000 nM against EGFR; 100 to 1000 nM against SRC; 10 to 100 nM on TEC.

Turning to `C[C@@H]1[C@H](NC(=O)c2ccc(C3CC3)cc2Cl)CCCN1c1cnc(C(N)=O)c(Nc2ccc(N3CCN(C)CC3)cc2)n1` [Example D-16, 5-[(2R,3R)-3-(2-chloro-4-cyclopropylbenzamido)-2-methylpiperidin-1-yl]-3-{[4-(4-methylpiperazin-1-yl)phenyl]amino}pyrazine-2-carboxamide], the IC50 at JAK3 fell in the range of 1000 to 10000 nM; at LCK, 10 to 100 nM; at ITK, 100 to 1000 nM; at EGFR, 100 to 1000 nM; on SRC, 100 to 1000 nM; against TEC it was 10 to 100 nM.

Consider `C[C@@H]1[C@H](NC(=O)N(C)C)CCCN1c1cnc(C(N)=O)c(Nc2ccc(N3CCN(C)CC3)cn2)n1` [Example D-180, 5-[(2R,3R)-3-[(dimethylcarbamoyl)amino]-2-methylpiperidin-1-yl]-3-{[5-(4-methylpiperazin-1-yl)pyridin-2-yl]amino}pyrazine-2-carboxamide], for which the IC50 on JAK3 is > 10000 nM; at LCK, > 10000 nM; against ITK, > 10000 nM; on EGFR, 1000 to 10000 nM; at SRC, > 10000 nM; against TEC, > 10000 nM.

For `COc1cc(C(=O)N[C@@H]2CCCN(c3cnc(C(N)=O)c(Nc4cnn(C)c4)n3)[C@@H]2C)ccc1C1CC1` [Example D-231, 5-[(2R,3R)-3-(4-cyclopropyl-3-methoxybenzamido)-2-methylpiperidin-1-yl]-3-[(1-methyl-1H-pyrazol-4-yl)amino]pyrazine-2-carboxamide], the IC50 at JAK3 is > 10000 nM; on LCK it was 100 to 1000 nM; on ITK it was 100 to 1000 nM; at EGFR it was 1000 to 10000 nM; at SRC it was 10 to 100 nM; against TEC, 10 to 100 nM.

`Cn1cc(Nc2nc(N3CC(NC(=O)c4ccc(C5CC5)cc4)CC(F)(F)C3)cnc2C(N)=O)cn1` (stereo in doubt) [Example D-190, 5-[(5S)-5-(4-cyclopropylbenzamido)-3,3-difluoropiperidin-1-yl]-3-[(1-methyl-1H-pyrazol-4-yl)amino]pyrazine-2-carboxamide]: the IC50 at JAK3 lay within 1000 to 10000 nM; at LCK, 100 to 1000 nM; at ITK, 1000 to 10000 nM; at EGFR, 1000 to 10000 nM; against SRC, 100 to 1000 nM; against TEC, 100 to 1000 nM.
